Assay results taken from publication PMC7801115, “Preclinical in vitro screening of newly synthesised amidino substituted benzimidazoles and benzothiazoles” (Journal of Enzyme Inhibition and Medicinal Chemistry, 2021).
Structures can show the parent of a compound that is named as a salt.

Legend:
[1] = system: A549; assay: MTS cell viability (cytotoxicity) assay, 2D cell culture; format: cell-based; settings: Homo sapiens, A549, 2D cell culture, 72 h, ±SD, N = 2, read-out: IC50 antitumor activity A549 2D
Method: (§1) Compounds are diluted 1:3. 500 nL (for 2 D cell culture) or 400 nL (for 3 D cell culture) of compound were transferred from mother plate to test plate by using Mosquito (TTP labtech). DMSO percentage in test concentrations was 0.5 − 1.0%. Starting concentration of the test compounds and standard compound doxorubicin was 50 µM (2 D cell culture) or 100 µM (3 D cell culture).
(§2) Cells were grown in 96 well cell star polystyrene plates. 10,000 cells/well were seeded in wells 4 h prior the treatment with different compounds concentrations and incubated for 72 h. A cell viability assay was performed according to the manufacturer’s instruction, using CellTiter 96 aqueous solution, MTS kit (Promega, Madison, WI, USA). After 0.5–2 h of cell incubation with MTS in 2 D cell culture, the plates were read using PE EnVision absorbance at 490 nm. […] Since we prefer homogeneous assays (mix and read procedures) and therefore MTS is more practical (one step less than MTT). MTS is more sensitive and accurate in comparison with MTT assay.
(§3) Calculation of IC50 data, curves and QC analysis is made by using Excel tools and GraphPadPrism software (La Jolla, CA), v. […] QC criteria parameters (Z', S:B, R2, HillSlope) were checked for every IC50 curve.

[2] = system: HCC827; assay: as above; format: cell-based; settings: Homo sapiens, read-out: IC50 antitumor activity HCC827 2D
Method: as §1, §2, §3

[3] = system: NCI-H358; assay: as above; format: cell-based; settings: Homo sapiens, read-out: IC50 antitumor activity NCI-H358 2D
Method: as §1, §2, §3

[4] = system: A549; assay: Cell viability assay, 3D hanging drop cell culture (CellTiter GLO 3D); format: cell-based; settings: Homo sapiens; A549, 3D hanging drop cell culture, 72 h; ±SD, N = 2; read-out: IC50 antitumor activity A549 3D
Method: as §1
(§4) Cells were grown in 96 well Perfecta 3 D hanging drop plates 5000 cell/well for 4 days until spheres were formed (and checked under the microscope). After sphere formation cells were treated with compounds followed by 72 h incubation. Cell viability assay was performed according to the manufacturer’s instruction, using CellTiter GLO 3 D for 3 D cell culture (Promega); cell incubation was 5 min on the shaker followed by 25 min incubation in the dark. Plates were read using PE EnVision luminescence.
as §3

[5] = system: HCC827; assay: as above; format: cell-based; settings: Homo sapiens, read-out: IC50 antitumor activity HCC827 3D
Method: as §1, §4, §3

[6] = system: NCI-H358; assay: as above; format: cell-based; settings: Homo sapiens, read-out: IC50 antitumor activity NCI-H358 3D
Method: as §1, §4, §3

[7] = system: A549; assay: BrdU proliferation assay, 2D cell culture; format: cell-based; settings: Homo sapiens, A549, 2D cell culture, ±SD, N = 2
Method: Cells were grown in 96 well cell star polystyrene plates. 10,000 cells/well were seeded in wells 4 h prior the treatment with different compounds concentrations and incubated for 72 h. A cell viability assay was performed according to the manufacturer’s instruction, using CellTiter 96 aqueous solution, MTS kit (Promega, Madison, WI, USA). After 0.5–2 h of cell incubation with MTS in 2 D cell culture, the plates were read using PE EnVision absorbance at 490 nm. The results for each of tested compounds are reported as growth percentages from two independent concentrations curves compared with the untreated control cells after drug exposure. Since we prefer homogeneous assays (mix and read procedures) and therefore MTS is more practical (one step less than MTT). MTS is more sensitive and accurate in comparison with MTT assay.
(§5) Proliferation assay was performed using Cell Proliferation ELISA, BrdU (Sigma, St. Louis, MO, USA). Briefly, 48 h hours after compound addition, 10 µM of BrdU was added to each well and incubated for following 24 h. After incubation, single cell suspension was made for 3 D cell culture in the new 96 well plate. Plates were centrifuged and supernatants were removed from each plate (for 2 D and 3 D cell culture) followed by 60 min incubation at 60° C. The rest of the proliferation assay was performed according to the manufacturer instructions.
(§6) Calculation of IC50 data, curves and QC analysis is made by using Excel tools and GraphPadPrism software (La Jolla, CA), v. 5.03. In brief, individual concentration–effect curves are generated by plotting the logarithm of the tested concentration of tested compounds (X) versus corresponding percent inhibition values (Y) using least squares (ordinary) fit. […] QC criteria parameters (Z', S:B, R2, HillSlope) were checked for every IC50 curve.

[8] = system: A549; assay: BrdU proliferation assay, 3D cell culture; format: cell-based; settings: Homo sapiens, A549, 3D cell culture, ±SD, N = 2
Method: as §4, with “luminescence. The results for each of tested compounds are reported as growth percentages from two independent concentrations curves compared with the untreated control cells after drug exposure.” for “luminescence.”
as §5, §6

[9] = system: NCI-H358; assay: BrdU proliferation assay, 3D cell culture; format: cell-based; settings: Homo sapiens, NCI-H358, 3D cell culture, ±SD, N = 2
Method: as §4, with “luminescence. The results for each of tested compounds are reported as growth percentages from two independent concentrations curves compared with the untreated control cells after drug exposure.” for “luminescence.”
as §5, §6

[10] = system: HCC827; assay: BrdU proliferation assay, 2D cell culture; format: cell-based; settings: Homo sapiens, HCC827, 2D cell culture, ±SD, N = 2
Method: as §2, §5, §3

[11] = system: NCI-H358; assay: BrdU proliferation assay, 2D cell culture; format: cell-based; settings: Homo sapiens, NCI-H358, 2D cell culture, ±SD, N = 2
Method: as §2, §5, §3

[12] = system: HCC827; assay: BrdU proliferation assay, 3D cell culture; format: cell-based; settings: Homo sapiens, HCC827, 3D cell culture, ±SD, N = 2
Method: as §4, §5, §3

[13] = HCC827, 2D cell culture, 72 h, MTS, ±SD, N = 2
[14] = NCI-H358, 2D cell culture, 72 h, MTS, ±SD, N = 2
[15] = HCC827, 3D hanging drop cell culture, 72 h, ±SD, N = 2
[16] = NCI-H358, 3D hanging drop cell culture, 72 h, ±SD, N = 2

SMILES	IC50 [1] [µM]	IC50 [2, 13] [µM]	IC50 [3, 14] [µM]	IC50 [4] [µM]	IC50 [5, 15] [µM]	IC50 [6, 16] [µM]	IC50 [7] [µM]	IC50 [8] [µM]	IC50 [9] [µM]	IC50 [10] [µM]	IC50 [11] [µM]	IC50 [12] [µM]	melting point [°C]	IC50 ([2]; HCC827, 72 h) [µM]	IC50 ([3]; NCI-H358, 72 h) [µM]	IC50 ([5]; HCC827, 72 h) [µM]	IC50 ([6]; NCI-H358, 72 h) [µM]
COc1cc2c(Nc3ccc(Br)cc3F)ncnc2cc1OCC1CCN(C)CC1 [Vandetanib, reference compound]	> 25	0.81 ± 0.05	3 ± 0.85	> 50	2 ± 0.11	0.3 ± 0.02	> 25	1.25 ± 2.82	1.91 ± 0.09	2.82 ± 1.98	1 ± 0.28	0.87 ± 1.15	–	–	–	–	–
Cl.c1ccc2c(-c3nc4ccc(C5=NCCCN5)cc4s3)c[nH]c2c1 [Compound 5f, 2-(1H-Indol-3-yl)-6–(3,4,5,6-tetrahydropyrimidin-1-ium-2-yl)benzothiazole chloride]	> 50	> 50	> 50	> 100	> 100	> 100	> 50	> 100	> 100	> 50	> 50	> 100	> 300	–	–	–	–
COc1cccc2c1C(=O)c1c(O)c3c(c(O)c1C2=O)C[C@@](O)(C(=O)CO)C[C@@H]3O[C@H]1C[C@H](N)[C@H](O)[C@H](C)O1 [Doxorubicin, reference compound]	2 ± 0.23	0.39 ± 0.05	0.11 ± 0.01	5 ± 0.26	0.78 ± 0.08	0.25 ± 0.03	0.06 ± 0.01	0.39 ± 0.02	0.34 ± 0.36	0.02	0.04	1.03 ± 0.71	–	–	–	–	–
c1ccc2c(-c3nc4ccc(C5=NCCCN5)cc4[nH]3)c[nH]c2c1 (as salt: chloride) [Compound 6e, 2-(1H-Indol-3-yl)-5(6)–(3,4,5,6-tetrahydropyrimidin-1-ium-2-yl)benzimidazole chloride]	–	–	–	–	–	–	–	–	–	–	–	–	> 300	–	–	–	–
CN[C@@H]1C[C@H]2O[C@@](C)([C@@H]1OC)n1c3ccccc3c3c4c(c5c6ccccc6n2c5c31)C(=O)NC4 [Staurosporine, reference compound]	–	0.15 ± 0.01	–	–	–	–	–	–	–	0.06 ± 0.01	–	0.04 ± 0.01	–	–	–	–	–
Cl.c1ccc(-c2nc3ccc(C4=NCCCN4)cc3s2)cc1 [Compound 5a, 2-Phenyl-6–(3,4,5,6-tetrahydropyrimidin-1-ium-2-yl)benzothiazole chloride]	> 50	> 50	> 50	> 100	> 100	> 100	> 50	> 100	> 100	> 50	> 50	> 100	272 to 275	–	–	–	–
Cl.c1ccc2c(c1)cc(-c1nc3ccc(C4=NCCCN4)cc3s1)c1ccccc12 [Compound 5i, 2-(Phenanthrene-9-yl)-6–(3,4,5,6-tetrahydropyrimidin-1-ium-2-yl)benzothiazole chloride]	> 50	–	–	> 100	–	–	> 50	> 100	> 100	> 50	> 50	> 100	196 to 200	> 50	> 50	> 100	> 100
